Columns and labels:
Experiment in all cases: relative viability (nuclei count vs DMSO), 5 days (fraction); higher = more cells survive
Motesanib + Navitoclax = compound: CC1(C)CNc2cc(NC(=O)c3cccnc3NCc3ccncc3)ccc21 [Motesanib] + CC1(C)CCC(c2ccc(Cl)cc2)=C(CN2CCN(c3ccc(C(=O)NS(=O)(=O)c4ccc(N[C@H](CCN5CCOCC5)CSc5ccccc5)c(S(=O)(=O)C(F)(F)F)c4)cc3)CC2)C1 [Navitoclax] (partner 0.5 µM)
Method in brief: (§1)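 Lung cancer cell lines were pin-tool dosed in 1536-well plates on the day after seeding, with either a lone drug or a fixed anchor-drug dose plus five library-drug doses (not always all listed) in √10 steps. Nuclei were counted on 4× images after 5 days. Relative viability is the ratio of treated-well to vehicle-well nuclei counts, with each value a median of duplicate plates.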

Motesanib + Lapatinib = compound: CC1(C)CNc2cc(NC(=O)c3cccnc3NCc3ccncc3)ccc21 [Motesanib] + CS(=O)(=O)CCNCc1ccc(-c2ccc3ncnc(Nc4ccc(OCc5cccc(F)c5)c(Cl)c4)c3c2)o1 [Lapatinib] (partner 2 µM)
Method in brief: as §1

[1] = compound: C[C@@]1(C(=O)Nc2ccc(F)nc2)CCCN1c1nc(Nc2cc(C3CC3)n[nH]2)c2cccn2n1 + CCNC(=O)c1noc(-c2cc(C(C)C)c(O)cc2O)c1-c1ccc(CN2CCOCC2)cc1 [Luminespib] (partner 0.01 µM)
Method in brief: as §1

[2] = compound: C[C@@]1(C(=O)Nc2ccc(F)nc2)CCCN1c1nc(Nc2cc(C3CC3)n[nH]2)c2cccn2n1 + Cc1nc(Nc2ncc(C(=O)Nc3c(C)cccc3Cl)s2)cc(N2CCN(CCO)CC2)n1 [Dasatinib] (partner 0.075 µM)
Method in brief: as §1

Cell Line | relative viability (Motesanib + Navitoclax; first compound 0.01 µM) | relative viability (Motesanib + Navitoclax; first compound 0.03162 µM) | relative viability (Motesanib + Navitoclax; first compound 0.1 µM) | relative viability (Motesanib + Navitoclax; first compound 0.3162 µM) | relative viability (Motesanib + Navitoclax; first compound 1 µM) | relative viability (Motesanib + Lapatinib; first compound 0.01 µM) | relative viability (Motesanib + Lapatinib; first compound 0.03162 µM) | relative viability (Motesanib + Lapatinib; first compound 0.1 µM) | relative viability (Motesanib + Lapatinib; first compound 0.3162 µM) | relative viability (Motesanib + Lapatinib; first compound 1 µM) | relative viability ([1]; first compound 0.04 µM) | relative viability ([1]; first compound 0.1265 µM) | relative viability ([1]; first compound 0.4 µM) | relative viability ([1]; first compound 1.265 µM) | relative viability ([2]; first compound 0.04 µM) | relative viability ([2]; first compound 0.1265 µM) | relative viability ([2]; first compound 0.4 µM) | relative viability ([2]; first compound 1.265 µM)
NCI-H1651 | 1.08 | 0.946 | 1.09 | 0.994 | 1 | 0.704 | 0.706 | 0.699 | 0.921 | 0.786 | 0.916 | 0.715 | 0.768 | 0.71 | 0.309 | 0.33 | 0.185 | 0.231
NCI-H1944 | 1.06 | 1.03 | 1.07 | 1.04 | 1.15 | 0.944 | 0.831 | 0.842 | 0.836 | 0.859 | 0.562 | 0.652 | 0.399 | 0.586 | 0.173 | 0.154 | 0.145 | 0.166
SW 1573 | 0.902 | 0.994 | 0.824 | 1.1 | 1.06 | 1.16 | 1.09 | 1 | 0.929 | 1.33 | 0.224 | 0.185 | 0.182 | 0.143 | 0.494 | 0.275 | 0.213 | 0.114
A-427 | 1.01 | 0.989 | 1.06 | 1.02 | 1.02 | 0.668 | 1.02 | 0.896 | 1.1 | 1.02 | 1.03 | 0.957 | 0.639 | 0.881 | 0.632 | 0.557 | 0.617 | 0.453
NCI-H2347 | 0.816 | 0.751 | 0.712 | 0.882 | 1.02 | 0.961 | 0.776 | 0.986 | 1.01 | 0.838 | 0.706 | 0.448 | 0.206 | 0.288 | 0.289 | 0.288 | 0.343 | 0.189
NCI-H1355 | 0.994 | 0.946 | 0.882 | 1.06 | 0.957 | 1.07 | 1.01 | 1.04 | 1.09 | 0.962 | 0.669 | 0.517 | 0.577 | 0.696 | 0.545 | 0.488 | 0.434 | 0.421
PC-3 [JPC-3] | 0.83 | 0.883 | 0.802 | 0.779 | 0.827 | 0.465 | 0.459 | 0.451 | 0.42 | 0.465 | 0.642 | 0.646 | 0.561 | 0.8 | 1.09 | 0.94 | 0.891 | 0.787
NCI-H2228 | 1.13 | 0.913 | 0.632 | 1.04 | 1.12 | 0.902 | 1.13 | 0.848 | 1.24 | 1.08 | 0.121 | 0.121 | 0.15 | 0.116 | 0.414 | 0.278 | 0.22 | 0.208

— the supplement of paper PMC10307832
